Results published in patent publication US12030835B2, “Substituted amide compounds useful as farnesoid X receptor modulators” (BRISTOL-MYERS SQUIBB COMPANY, priority 2019, dated 2024).

Molecular target: T1, human FXR (Homo sapiens, UniProt Q96RI1)
T1 construct: expressed in transfected cells
T1 sequence (Q96RI1 262-486 limits assumed): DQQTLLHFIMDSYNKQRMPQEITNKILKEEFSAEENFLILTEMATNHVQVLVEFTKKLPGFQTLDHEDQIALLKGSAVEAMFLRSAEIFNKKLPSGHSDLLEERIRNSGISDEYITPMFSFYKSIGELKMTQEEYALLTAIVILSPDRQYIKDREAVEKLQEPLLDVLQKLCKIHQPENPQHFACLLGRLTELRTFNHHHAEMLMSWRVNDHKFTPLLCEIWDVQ
Experiment: transient human FXR/Gal4-luciferase reporter assay
Assay type: cell-based
Settings: Gal4-hFXR (ligand binding domain) fusion transiently transfected in HEK293 Gal4-luciferase reporter cells; overnight incubation; response as percentage of 8 μM GW-4064 control
Experimental: A Gal4-hFXR fusion construct reporter system was used as the primary assay to characterize compound activity. A construct including 5 copies of the Gal4 promoter response element upstream of a firefly luciferase reporter cDNA was stably expressed in HEK293 cells. This reporter cell line was maintained in Dulbecco's Modified Eagle's medium (DMEM; Gibco) supplemented with 1% penicillin-streptomycin (P/S) solution, 500 μg/ml Zeocin and 10% charcoal/dextran-treated fetal bovine serum (cs-FBS) at 37° C. in a humidified 5% CO2 atmosphere. Another plasmid was constructed in which the human cytomegalovirus promoter in the pcDNA3.1 vector directs the expression of the cDNA encoding a fusion protein comprised of the DNA binding domain from the Gal4 transcription factor fused to the ligand binding domain from human FXR.
The day prior to transfection, the reporter cells in culture are detached from the plate with trypsin and plated into a T75 flask at a sufficient density to achieve approximately 90% confluence the next morning. The transfection reagents are prepared by separately diluting 25 μg of the pcDNA3.1-Gal4-FXR plasmid into 1.87 mL of Opti-MEM (Thermo-Fisher), and 40 μL of Lipofectamine 2000 (Thermo-Fisher) into 1.87 mL of Opti-MEM, and then adding the diluted DNA solution into the diluted Lipofectamine 2000 solution and incubating at room temperature for 15-20 minutes. The mixture is further diluted with 10 ml of a solution comprised of DMEM, 10% cs-FBS, and 1% P/S immediately prior to transferring to the cells. The maintenance culture media is aspirated from the cells and the final transfection mixture is added before the cells are incubated overnight at 37° C. in a humidified 5% CO2 atmosphere. This protocol can be scaled up, and the transiently transfected cells can be cryopreserved in an assay-ready format.
For compound testing, 100 nL of the compounds (serial dilutions in DMSO) are dispensed with an Echo acoustic dispenser (Labcyte) into the wells of a Corning/Costar clear bottom 384-well white plate. The transfected cells are harvested, counted, and diluted such that 10-25,000 cells in 25 μL are plated into each well of the 384-well compound assay plate. The compound-treated cells are incubated overnight at 37° C. in a humidified 5% CO2 atmosphere. The next morning 25 μL of Steady-Glo (Promega) are added to each well of the plate, the mixture is incubated for 15 min. with shaking, and luminescence is measured on an Envision (Perkin Elmer) plate reader.

| EC50 [nM] | SMILES |
| --- | --- |
| 30 | CC(C)(O)C#Cc1cccc(N(CC23CCC(c4nnc(C(C)(C)C)o4)(CC2)CC3)C(=O)C23CC(F)(C2)C3)c1 [Example 48, N-((4-(5-(tert-Butyl)-1,3,4-oxadiazol-2-yl)bicyclo[2.2.2]octan-1-yl)methyl)-3-fluoro-N-(3-(3-hydroxy-3-methylbut-1-yn-1-yl)phenyl)bicyclo[1.1.1]pentane-1-carboxamide] |
| 39 | CC(C)(O)C#Cc1cccc(N(CC23CCC(c4noc(C(C)(F)F)n4)(CC2)CC3)C(=O)C23CC(F)(C2)C3)c1 [Example 49, N-((4-(5-(1,1-difluoroethyl)-1,2,4-oxadiazol-3-yl)bicyclo[2.2.2]octan-1-yl)methyl)-3-fluoro-N-(3-(3-hydroxy-3-methylbut-1-yn-1-yl)phenyl)bicyclo[1.1.1]pentane-1-carboxamide] |
